Laboratory results taken from patent US20060094668A1 (Wyeth, priority 2004, published 2006).

Legend:
[1] = literature case reports and studies; cited from earlier work
[2] = clinical; settings: human, in vivo; for AUC(0-t): AUC0-12 h; for Vd: Vss
Description: One (1) hour after a medium-fat meal, and after a predose 7-mL blood sample for a baseline tigecycline PK analysis, each subject received a single 100-mg dose of tigecycline.
Venous blood samples (7 mL each) for determination of tigecycline concentrations in serum were collected at the following times: on day 1, predose (within 2 hours before the start of the tigecycline infusion), and at 0.5 (end of infusion), 1, 1.5, 2, 3, 4, 6, 8,12,16, 24, 36, 48, 72, and 96 hours after tigecycline administration; and on day 19, predose, and at 0.5 (end of infusion), 1,1.5, 2, 3, 4, 6, 8, 12,16, 24, 36, 48, 72, and 96 hours after tigecycline administration.
Serum tigecycline samples were analyzed by a validated liquid chromatography/tandem mass spectroscopy (LC/MS/MS) method.
Tigecycline peak serum concentration (Cmax) and time to peak concentration (tmax) were reported from the observed data. Concentrations that were judged to be in the terminal phase were used to obtain the terminal-phase disposition rate constant (λz) by log-linear regression. The half-life (t1/2) was calculated as 0.693/λz. Tigecycline concentrations over the time period from hours 24 to 96 were used to estimate the t1/2.
Total AUC0-εr and AUMC were estimated as follows: AUC=(AUCt)+Ct/λz, and AUMC=(AUMCt)+tlast·Ct/λz+Ct/λz●2
The IV clearance (CL) was calculated and normalized by body weight (WT) as follows: CL=Dose/(AUC●WT). The apparent Vss was estimated by Vss=CL·MRT.
For this period of the study, the MRT was calculated as: MRT=(AUMC0-t+(t·Ctλz))/AUC0-t.
According to linear PK theory, (Gibaldi M, Perrier D. Pharmacokinetics. Marcel Dekker, Inc., 1982) the total AUC after a single dose (AUC0-∞) is equal to AUC over the dose interval τ at steady state (AUC0 τ).
For statistical comparisons, AUC, MRT, and Vss on day 1 (period 1) were based on concentrations normalized to the 50-mg tigecycline dose given during period 3.
(§1) Geometric least-squares (GLS) mean ratios of tigecycline PK parameters were computed, and their associated 90% confidence intervals (Cls) calculated based on least squares means and the mean square error obtained from the 2-way ANOVA. […] The SAS statistical software package was used for all statistical analyses.

[3] = format: in vivo, human
Source text: On each day before the start of study periods 1 and 2 (day-1 and day 6), all subjects underwent physical examinations, laboratory tests, vital sign assessments, and a standard 12-lead electrocardiogram (ECG), which included measurements of rhythm, heart rate, PR, QRS, QT, and QTc intervals. Adverse event monitoring was continuous, and blood samples for PK analysis was completed at the designated times throughout all study periods. Before dose administration on days 1, 7 and 15, 3 complete ECGs were performed for each subject, and the mean value used as the subject's baseline for each corresponding period.
Twelve (1 2)-lead ECGs were performed at screening, on day-1, on days 1, 7, 14, 15, and 19 within 2 hours before study drug administration, on days 2 through 6, 8 through 13, 16 through 18, 20, 21, and 22, and at the final evaluation at approximately 8 AM.
Descriptive statistics were obtained for all demographic characteristics, drug concentrations, PK parameters, and changes from baseline in ECG parameters. Analysis of variance (ANOVA) was performed on the natural logarithm-transformed PK parameters to evaluate treatment and subject effects. An analysis of the change from baseline in ECG parameters with and without multiple-dose tigecycline administration was conducted by using ANOVA, which included terms for subject and treatment effects. […]

[4] = clinical; settings: human, in vivo
Description: Both study medications were always administered 1 hour after a medium-fat meal. Tigecycline was administered intravenously (IV) in […] sterile normal saline over 30 minutes for all doses.
At approximately 8 AM, each subject received 100 mg of tigecycline. […] At approximately 8 PM, each subject received 50 mg of tigecycline.
In addition, on days 16 through 18, each subject received 50 mg of tigecycline every 12 hours (at approximately 8 AM and 8 PM).
All samples were collected from an indwelling catheter or by direct venipuncture into blood collection tubes containing ethylenediaminetetraacetic acid.
The Cmax and tmax values were taken directly from the observed data. The λz and t1/2 values were not estimable because blood samples were not collected during the terminal disposition phase.
Vss/F and MRT could not be calculated because λz could not be estimated.
as §1

[5] = Urinary digoxin pharmacokinetics (Ae, CLr), digoxin alone vs with tigecycline; settings: N = 20; for CL renal: human, urine and plasma, oral, 0.25 mg, CLr
Source text: In addition, a 24-hour urine collection (day 14 to day 15) for PK analysis was completed for each subject.
Subjects were required to void completely at the end of the predose period and at the end of each time interval after dose administration to ensure a complete interval collection.
Pharmacodynamic Assessments

For CC[C@H]1OC(=O)[C@H](C)[C@@H](O[C@H]2C[C@@](C)(OC)[C@@H](O)[C@H](C)O2)[C@H](C)[C@@H](O[C@@H]2O[C@H](C)C[C@H](N(C)C)[C@H]2O)[C@](C)(OC)C[C@@H](C)C(=O)[C@H](C)[C@@H](O)[C@]1(C)O [Clarithromycin], the “effect on plasma levels of digoxin” value [1] is listed as “increase plasma levels of digoxin, sometimes to toxic levels”.

CN(C)c1cc(NC(=O)CNC(C)(C)C)c(O)c2c1C[C@H]1C[C@H]3[C@H](N(C)C)C(O)=C(C(N)=O)C(=O)[C@@]3(O)C(O)=C1C2=O [Tigecycline] showed a clearance [2] of 3.7 mL/min/kg, a half-life [2] of 26.7 h and an AUC(0-t) ([2]; serum tigecycline, Geo. Mean) of 2450 ng·h/mL. For the same compound, the AUC(0-t) ([2]; serum tigecycline, Mean ± SD) was 2480 ± 379 ng·h/mL, the AUC ([2]; AUC, serum tigecycline, Mean ± SD) was 2840 ± 732 ng·h/mL and the MRT ([2]; serum tigecycline, Geo. Mean) was 29 h. The MRT ([2]; serum tigecycline, Mean ± SD) was 30 ± 8.3 h, the Vd ([2]; serum tigecycline, Geo. Mean) was 6.43 L/kg and the Vd ([2]; serum tigecycline, Mean ± SD) was 6.53 ± 1.3 L/kg. For the same compound, the clearance ([2]; iv) was 3.82 mL/min/kg, the “effect on steady-state digoxin PD as measured by changes from baseline in ECG parameters” value ([3]; PR, QRS, QT, QTc intervals at 24 hours) was “did not produce significant changes” and the “QT interval, change from baseline” value ([3]; in vivo) was “not changed further”.

With C[C@H]1O[C@@H](O[C@H]2[C@@H](O)C[C@H](O[C@H]3[C@@H](O)C[C@H](O[C@H]4CC[C@@]5(C)[C@H](CC[C@@H]6[C@@H]5C[C@@H](O)[C@]5(C)[C@@H](C7=CC(=O)OC7)CC[C@]65O)C4)O[C@@H]3C)O[C@@H]2C)C[C@H](O)[C@@H]1O [Digoxin] the concentration at 0 h [4] was 0.405 ng/mL, the concentration at 0.5 h [4] was 0.686 ng/mL and the concentration at 1 h [4] was 1.02 ng/mL. The concentration at 2 h [4] was 0.966 ng/mL, the concentration at 4 h [4] was 0.645 ng/mL and the concentration at 6 h [4] was 0.517 ng/mL. The concentration at 8 h [4] was 0.531 ng/mL, the concentration at 10 h [4] was 0.451 ng/mL and the concentration at 12 h [4] was 0.405 ng/mL. For the same compound, the concentration at 16 h [4] was 0.383 ng/mL, the concentration at 24 h [4] was 0.33 ng/mL and the “effect on the AUC, CL, or MRT of tigecycline” value [2] was “did not affect”. The “Ae, urinary digoxin, Geo. Mean” value [5] was 40.3%, the CL renal ([5]; digoxin renal clearance, Mean ± SD) was 1.82 ± 0.37 mL/min/kg and the CL renal ([5]; digoxin, Geo. Mean) was 1.79 mL/min/kg. The “Ae, urinary digoxin, Mean ± SD” value ([5]; percentage of dose excreted unchanged in urine 0-24 h) was 41.3 ± 9.0%.
